This is an account of results in US20070110714A1 (priority 2003, published 2007).

The test system of one assay is N-DC. The assay is described as follows: Cytokine production of stimulated N-DC, ELISA of culture supernatant. To be noted: N-DC cultured 24 hours with 50 ng/ml IL-15. In kind it is cell-based, human. As to the method:
(§1) N-DC and HCV-DC were stimulated with IFNa (1000 U/mL) for 24 hours(n=5 for each group). IL-15, IL-12p70, TNFa and IL-1β in each culture supernatant were measured by solid phase sandwich ELISA using a couple of specific monoclonal antibodies and a recombinant cytokine standard substance (IFNa/β, IL-12p70, TNFa and IL-1β, Endogen, Wobum, Mass.; IL-15, BD-Pharmingen). The limit thresholds of detection of these ELISA systems are as described below: IL-15, 3.7 pg/mL; IFNa/β, 17.5 pg/mL; IL-12p70, TNFa and IL-1β, 8.8 pg/mL.
(§2) N-DC and HCV-DC were cultured for 24 hours together with 50 ng/ml IL-15 in the presence or absence of an anti-IFNa/βR neutralization antibody (30 μg/mL)(n=5 for each group). IFNa and IFNβ in each culture supernatant were measured by ELISA.
(In general: An ELISA detects its analyte on a solid surface through an enzyme-linked reagent.)

Assay [1] deals with NK cells. In words: NK cell activation by co-culture with stimulated HCV-DC. In kind it is cell-based, human. The settings on record: NK cells co-cultured with cytokine-stimulated HCV-DC. As to the method:
(§3) NK cells were isolated from PBM of a healthy donor, and labeled with a concentrated antibody cocktail for NK cell, then, labeled with magnetic colloid (StemCell Technologies (Vancouver, BC, Canada)). 90% or more of the cells were CD56+CD3-lymphocytes. The concentrated NK cells were cultured with RPMI 1640 medium supplemented with 10% FCS and 10 U/mL penicillin/streptomycin, in a 24-well culture dish (5.0×10^5/well). DCs from a healthy individual (N-DC) or a HCV-infected individual (HCV-DC) were stimulated with IFNa (1000 U/mL) or IL-15 (50 ng/mL) for 24 hours, added to a well at a concentration of 1.0×10^5/mL, and co-cultured together with NK cells for 24 hours.
The cytolysis assay was carried out as described below. Target cells (K562) labeled with ^51Cr were incubated for 4 hours at various effecter/target ratios, in NK/DC co-culturing (with or without trans well system) or NK cell single culturing. After incubation, the supernatant was recovered, and ? counting was conducted. […] The cytolysis activity was calculated according to the following formula: Lysis %=(experimental value of release−natural release)×100/(maximum release−natural release)
Intracellular IFN? expression of an NK cell was assayed as described below. […] The stained cells were analyzed by flow cytometry. […]

Assay [2] concerns NK cells. In words: NK cell activation by co-culture with stimulated N-DC (K562 cytolytic assay, intracellular IFN? expression). In kind it is cell-based, human. As to the method: as §3
(§4) The cytolysis assay was carried out as described below. Target cells (K562) labeled with ^51Cr were incubated for 4 hours at various effecter/target ratios, in NK/DC co-culturing (with or without trans well system) or NK cell single culturing. After incubation, the supernatant was recovered, and ? counting was conducted. Maximum release or natural release was defined as counting from a sample incubated with 5% Triton-X or a sample incubated with only the medium, respectively. The cytolysis activity was calculated according to the following formula: Lysis %=(experimental value of release−natural release)×100/(maximum release−natural release)
(§5) Intracellular IFN? expression of an NK cell was assayed as described below. NK cells cultured for 24 hours together with DC as described above were incubated together with 10 ng/ml PMA and 1 μmol/L ionomycin (Sigma Aldrich). Next, after incubation at 37° C. for 4 hours in the presence of 1 μl/mL GolgiPlug (registered trademark)(BD-Phanmngen), NK cells were stained at 4° C. for 30 minutes with a PE-labeled CD56 monoclonal antibody. The cells were treated with Cytofix/Cytoperm (registered trademark) buffering solution (BD-Pharmingen) at room temperature for 15 minutes, then, stained with a FITC-labeled-anti-IFN? monoclonal antibody (mouse IgG1). The stained cells were analyzed by flow cytometry. […]

A further assay relates to HCV-DC. In words: Cytokine production of stimulated HCV-DC, ELISA of culture supernatant. In kind it is cell-based, human. The settings on record: HCV-DC cultured 24 hours with 50 ng/ml IL-15. As to the method: as §1, §2
In assay [3] the test system is NK cells. The assay is described as follows: NK cells cultured with IL-15 alone (K562 cytolytic activity and IFN? production). In kind it is cell-based, human. To be noted: newly isolated NK cells cultured 24 hours with 50 ng/mL IL-15, no DC. On the procedure: as §4, §5
The test system of assay [4] is Monocyte-derived DCs from HCV-infected patients (HCV-DC). The assay is described as follows: MICA/B expression in stimulated DC by flow cytometry (HCV-DC). The settings on record: HCV-DC stimulated 24 hours with cytokine at day 6. In kind it is cell-based, human.
Assay [5] relates to Monocyte-derived DCs from healthy donors (N-DC). The assay is described as follows: MICA/B expression in stimulated DC by flow cytometry (N-DC). In kind it is cell-based, human. To be noted: N-DC stimulated 24 hours with cytokine at day 6. A general note: A flow cytometer gives signals particle by particle.
Assay [6] concerns pseudo type VSV-E1E2. In kind it is cell-based.
A further assay relates to VSV? G-G. In kind it is cell-based.
Assay [7] relates to pseudo type VSV-E1E2. In kind it is cell-based. The source holds these as a separate data set.
For the next assay, the system named is HCV. In kind it is cell-based.
Another assay concerns MDC. In kind it is cell-based, human.
Where [8] appears, read: NK cells co-cultured 24 hours with cytokine-stimulated N-DC.

For the molecule “IL-15: cytokine (R&D Systems); claimed active ingredient, T cell growth factor stimulating dendritic cells”, the “production of IFNa and IFNβ” value with N-DC and in the assay on HCV-DC was “produced” throughout. Besides, the “activation of NK cells” value with NK cells [1] is listed as “activated NK cells”. Besides, the “IFN? production of NK cells” value with NK cells [2] (setting [8]) is “increase”. In the assay with NK cells [2] (setting [8]), the “cytolytic activity for K562 cells” value was “increase”. For the same molecule, the K562 cytolytic activity result with NK cells [2] (trans well: NK cells and IL-15 (50 ng/mL)-stimulated N-DC separated by 0.4 μm membrane, 24 hours) is given as “did not show increase in cylolytic ability”. Besides, the “activation of NK cells (K562 cytolytic activity and IFN? production)” value in the assay with NK cells [3] is “could not activate NK cells”. For the same molecule, the MICA/B expression entry in [4] and in assay [5] was “could apparently induce MICA/B” each time.

On to polyI:C, for which the “percentage of VSV-E1E2-containing GFP+ cells” value in the assay with pseudo type VSV-E1E2 [6] is “decreased”. Also, in the assay with VSV? G-G, the “sensitivity against VSV? G-G (percentage of GFP+ cells)” value was “decreased”.

With mannan, the “percentage of GFP+ cell having VSV-E1E2” value in the assay on pseudo type VSV-E1E2 [6] is given as “decreased in dose-dependent manner”. Besides, the “infection of VSV-E1E2 in HepG2 cells” value with pseudo type VSV-E1E2 [7] is “did not inhibit”. The “disturbing effect on infection of MDC with true HCV” value in the assay with HCV was “confirmed”.

For the molecule TNFa, the “percentage of VSV-E1E2-containing GFP+ cells” value with pseudo type VSV-E1E2 [6] is listed as “decreased”. Besides, in the assay with VSV? G-G, the “sensitivity against VSV? G-G (percentage of GFP+ cells)” value is given as “decreased”. Besides, the MICA/B expression entry in assay [4] and in assay [5] was “did not induce MICA/B expression” throughout.

For the molecule IL-12: cytokine (R&D Systems), the MICA/B expression result in assay [4] and in assay [5] was “did not induce MICA/B expression” throughout.

On to “GM-CSF: recombinant human GM-CSF (PeproTech)”, for which the “proportion of GFP+ cells (median)” value in the assay on pseudo type VSV-E1E2 [6] is recorded as 1.5%.

With IL-18: cytokine (R&D Systems), the MICA/B expression result in [4] and in assay [5] was “did not induce MICA/B expression” each time.

On to `O=C(O)CN(CCN(CC(=O)O)CC(=O)O)CC(=O)O` [EDTA], for which the “percentage of GFP+ cell having VSV-E1E2” value in the assay on pseudo type VSV-E1E2 [6] is recorded as “did not decrease”.

Turning to `O=C[C@H](O)[C@@H](O)[C@@H](O)[C@H](O)CO` [galactose], the “percentage of GFP+ cell having VSV-E1E2” value in the assay on pseudo type VSV-E1E2 [6] was “did not exert an influence”.

Turning to CpG ODN 2006, the “percentage of VSV-E1E2-containing GFP+ cells” value in the assay on pseudo type VSV-E1E2 [6] was “decreases significantly”. The “expression of CD83 and CD86” value in the assay on MDC is reported as “up-regulated”. The “sensitivity against VSV? G-G (percentage of GFP+ cells)” value in the assay on VSV? G-G is on record as “not influenced”.

B1: IL-4: recombinant human IL-4 (PeproTech) (protein, UniProt P05112 25-153, looked up)
Interleukin-4: HKCDITLQEIIKTLNSLTEQKTLCTELTVTDIFAASKNTTEKETFCRAATVLRQFYSHHEKDTRCLGATAQQFHRHKQLIRFLKRLDRNLWGLAGLNSCPVKEANQSTLENFLERLKTIMREKYSKCSS
On to B1, for which the “percentage of VSV-E1E2-containing GFP+ cells” value with pseudo type VSV-E1E2 [6] was “decreases significantly”. In addition, the “sensitivity against VSV? G-G (percentage of GFP+ cells)” value in the assay with VSV? G-G is “not influenced”.
